The compound `Cc1ccc(Sc2c(SCc3ccccc3)cc(C(=O)O)cc2S(N)(=O)=O)cc1` came in with a melting point of 250 to 251 °C. For `O=C1NC(=O)N2C(c3ccccc3)SC[C@@H]12` (stereo not given in full) the value was 177 to 179 °C; for `O=c1[nH]sc2c1CCC2`, 177 to 179 °C; for `Clc1cccc(-c2nc(-c3ccc4c(c3)OCO4)c(-c3ccc4c(c3)OCO4)[nH]2)c1Cl`, 198 °C. On to `Cc1cc(C(O)CN(C)Cc2cc3c(=O)c(C(=O)NCc4ccc(Cl)cc4)cn(C)c3o2)oc1C` (stereo not given), for which the melting point worked out at 140 °C. For `CC(C)N(c1ccc(O)cc1)S(=O)(=O)c1ccc(O)cc1` the value was 158 to 159 °C; for `O=C(N1CCOCC1)C(Cl)(c1ccccc1)c1ccccc1`, 113 °C. `CN(C)c1ncc2c(=O)n(CCN3CCCCC3)sc2n1` came in with a melting point of 128 to 129 °C.

In turn, `O=C(O)N[C@@H](CC1CCCCC1)[C@@H](O)[C@@H]1CCCS1` gave a melting point of 118 to 119 °C. Compound `C=Cn1cc(C(=O)O)c(=O)c2c(C)c(F)c(N3CCNCC3)c(F)c21` had a melting point of 222 to 225 °C. With `COc1ccc(CCNC(=O)C(=O)NCc2ccncc2)cc1OC1CCCC1` the figure was 129 to 131 °C; with `CCC(=NO)C1=CCCN(Cc2ccccc2)C1`, 111 to 112 °C; with `COC(=O)C1=C(S(=O)(=O)NC(=O)Nc2nc(OC)nc(OC)n2)CCC1`, 168 to 169 °C. With `NC(=O)c1cccc(-c2ccnc(C(=O)N(O)Cc3ccccc3)c2)c1` the figure was 158 to 162 °C; with `Cc1ccccc1C(Oc1cc(OCc2ccc3ncoc3c2)ccc1C#N)C(=O)O` (racemic), 172 to 178 °C.

Regarding `COc1ccc(-c2cccn2-c2ccc(S(N)(=O)=O)cc2)cc1`, the melting point is 183 to 184 °C. With `COc1ccccc1C=C1NC(=S)NC1=O` the figure was 234 to 235 °C; with `CN(C)c1noc(-c2ncn3c2COc2cc(F)ccc2-3)n1`, 239 to 240 °C; with `O=Cc1cccc(Oc2cccc(F)c2)n1`, 42 to 43 °C.

Compound `Fc1ccc(-c2n[nH]cc2-c2ccnc(NCc3ccccc3)n2)cc1` came in with a melting point of 216 to 217 °C. For `O=C(Nc1cccnn1)N1CCN(c2ccnc(-c3cccc(F)c3F)n2)CC1` the value was 235 to 236 °C; for `CCC1C(C)=NN=C(c2ccccc2)c2ccc(OC)cc21` (stereo not given), 162 to 163 °C; for `O=c1oc2cc(O)c(O)cc2c(O)c1C1c2ccccc2Oc2c1c(=O)oc1cc(O)cc(O)c21` (stereo not given), > 300 °C. For `CN(C)CCSc1cc(NC(=O)OC(C)(C)C)c(NC(=O)CC(=O)c2cccc(C#N)c2)cc1C#Cc1ccccc1` the value was 88 °C.

As for `CCOC(=O)C1(C(=O)OCC)CCNC(=O)C1CCO` (stereo not given), the melting point lay in the range of 120 to 121 °C. Compound `Cc1cccc(COc2nn3c(-c4ccccc4)nnc3cc2C23CCC(CC2)C3)n1` gave a melting point of 162 to 164 °C. In turn, `Cc1ccc(-c2nc(N)ncc2-c2ccc(=O)n(C)n2)cc1` gave a melting point of 230 °C. For `CN1CCC(c2[nH]c(=O)c3ccccc3c2-c2ccccc2F)CC1` the value was 247 to 249 °C. With `CS(=O)(=O)N(c1cccc(C(=O)NCc2nc[nH]n2)c1)C1CN(C(c2ccc(Cl)cc2)c2ccc(Cl)cc2)C1` the figure was 210 °C.

The compound `O=S(=O)(c1ccccc1)N1CCC(C(O)(c2ccc(F)cc2)C2CCCCC2)CC1` (stereo not given) yielded a melting point of 106 to 109 °C. With `CCCCN(c1nc(N2CCOCC2)nc(N(CCCC)C2CC(C)(C)N(OC3CCCCC3)C(C)(C)C2)n1)C1CC(C)(C)N(OC2CCCCC2)C(C)(C)C1` the figure was 159 to 163 °C; with `CC(=O)c1cccc(Oc2ncccc2C(=O)NCc2ccc(C(C)(C)O)cc2F)c1`, 68 to 70 °C; with `CCC(=O)SCCNC(=O)CCNC(=O)OCc1ccccc1`, 77 to 104 °C. For `N#CCCCC1Sc2ccccc2NC1=O` (stereo not given) the value was 107 to 108 °C.

The compound `CC(C)NC1=NS(=O)(=O)c2cc(Cl)sc2N1` showed a melting point of 272 to 274 °C.

On to `CC1(O)C=CC2C3CCC4=CC(=O)CCC4C3C(c3ccc(-c4ccc(C#N)cc4)cc3)CC21C` (stereo not given), for which the melting point was 206 °C. For `CC(c1cc(C(C)(C)C#N)cc(C(C)(C)C#N)c1)n1ccnc1` (stereo not given), the melting point was in the range of 77 to 80 °C.

In the case of `COc1cc(C(=O)O)ccc1OCc1nc(-c2ccccc2)oc1C`, the melting point was 219 to 220 °C. As to `CC(C)(C)OC(=O)N1CCC(Oc2cccc3[nH]ccc23)C1` (stereo not given), the melting point is 164 to 165 °C.

The compound `O=S(=O)(Cl)c1ccc(-c2cccc(F)c2)s1` yielded a melting point of 75 to 84 °C. For `O=C1NC(=O)C(Cc2ccc(CCNCC(O)COc3ccc(OCc4ccccc4)cc3)cc2)S1` (stereo not given) the value was 51 to 53 °C; for `CCc1nn(C2CCCC2)c2cc(C(=O)Nc3c(Cl)ncnc3Cl)ccc12`, 171 to 172 °C; for `COCc1cnc2c(NC(=O)c3c(Cl)cccc3Cl)cccc2c1CCl`, 164 °C. Compound `N[C@@H]1CCc2c(ccc(OCc3ccccc3)c2CO)[C@H]1O` (relative stereo) gave a melting point of 148 to 150 °C. `N#CC=C1CCN(c2ccc(N3C[C@H](CNC(=O)CBr)OC3=O)cc2F)CC1` returned a melting point of 160 to 162 °C. With `OCCCc1cn(-c2ccc(C(F)(F)F)cn2)nc1C1CCCCC1` the figure was 106 to 107 °C; with `NC(=O)Nc1nc2c(s1)-c1c(cnn1-c1ccccc1)CC2`, 321 to 325 °C.

Compound `CC(=O)n1nc(-c2ccccc2)cc1Sc1ccccc1` had a melting point of 83 to 84.5 °C.

Compound `COC(=O)c1ccc(OC)cc1OC(=S)N(C)C` came in with a melting point of 117 to 120 °C. The compound `CCN(c1ccc(Br)cc1)S(=O)(=O)C(F)(F)F` came in with a melting point of 59 to 60 °C. With `CS(=O)(=O)Nc1ccc(OCC2CCN(c3ccncc3)CC2)cc1` the figure was 214 to 215 °C; with `CC(C)C(=O)CCC(C)C1CCC2C3CC(O)C4CC(O)CCC4(C)C3CCC12C` (stereo not given), 180 to 181 °C; with `O=C1C2=C(CCCC2)C(=O)N1c1cc(O)c(Cl)cc1Cl`, 155 to 157 °C. With `Cc1cc(C(O)CN2CCC(O)(c3cccc(F)c3)CC2)c(C)cc1O` (stereo not given) the figure was 193 °C; with `Cc1ccsc1C(=O)Cc1ccccc1[N+](=O)[O-]`, 85 to 86.5 °C; with `CC(C)(C)OC(=O)CCN(CCC12CC3CC(CC(C3)C1)C2)C(=O)NCCCc1ccncc1`, 124 to 127 °C. With `COc1cc(CC(=O)NCCCc2ccc(C)c(C)c2)ccc1OCCN1CCNCC1` the figure was 92 to 94 °C; with `CCCc1c(OCCCCCCc2cccc(OCCCCCCCC(=O)O)c2CCC(=O)O)ccc2c1OCCC2=O`, 79 to 81 °C; with `N#Cc1c(N2CCCC2)cc(-c2ccccc2)c2c1-c1ccccc1C2`, 158 to 160 °C. `O=C(O)CCCc1ccc(NS(=O)(=O)c2ccccc2)cc1`: the melting point lay in the range of 128 to 130 °C. For `COc1ccc(C(=O)Oc2ccc(C(=O)O)c(O)c2)cc1C12CC3CC(CC(C3)C1)C2` the value was 243 to 244 °C; for `Cc1nc(N(C)C)sc1C(=O)c1ccc(N)c(N)c1`, 174 to 178 °C. Compound `CN(C(=O)N1CCOCC1)c1ccc(OCC(=O)N[C@@H](CC(N)=O)C(=O)N[C@@H](Cc2ccccc2)[C@H](O)C(=O)N2CCC[C@H]2C(=O)NC(C)(C)C)cc1` gave a melting point of 112 to 114 °C. With `Cc1c(C#N)cc(C(C)(C)C)c(O)c1C(=O)Nc1ccc(S(=O)c2ccc(Br)cc2)cc1C(F)(F)F` (stereo not given) the figure was 178 to 180 °C; with `CC(C)(C)OC(=O)NCCNC(=O)c1ncccc1Oc1ccccc1`, 97 to 98 °C; with `COC(=O)c1cc(C(=O)c2c(C)c(N(C)C(=O)c3cccc(OC)c3)c3ccccn23)ccc1[N+](=O)[O-]`, 158 °C.

Regarding `CCCCc1ccc(N=C2NCCCN2)cc1`, the melting point lay within 116 to 119 °C. Consider `COC(=O)C(F)=CC1C(C(=O)OC(C#N)c2cccc(Oc3ccccc3)c2)C1(C)C` (stereo not given), for which the melting point was determined as 70 °C.

Consider `CC(C)(C)OC(=O)N1CCc2c(n(CCCc3ccccc3)c3cc(Cl)c(Cl)cc23)CC1`, for which the melting point was in the range of 119 to 124 °C.

For the compound `CN1CCN(c2cccc3ccc(Nc4ncccc4[N+](=O)[O-])cc23)CC1`, the melting point was in the range of 128 to 129 °C.

Regarding `COc1ccc2c(=O)c(-c3nnnn3C)cn(C)c2c1`, the melting point was in the range of 270 to 273 °C. For `CCc1nc(/C=C/c2cn(-c3ccccc3)nc2OCc2ccc(OCc3nc(-c4cccc(C(=O)NS(C)(=O)=O)c4)oc3C)c(OC)c2)cs1` the value was 211 to 213 °C; for `COC(=O)NCC1CN(c2ccc(-n3cnc(Cn4cccn4)c3)c(F)c2)C(=O)O1` (stereo not given), 130 °C. The compound `CC(C)(O)c1ccc(CNC(=O)c2cccnc2Oc2cccc3c2CCC3=O)cc1` returned a melting point of 145 to 147 °C. Compound `COc1cccc(N(C)C(=O)c2cnc(Br)s2)c1` came in with a melting point of 106 °C.

With `CCc1cc(CC(=O)O)ccc1OCc1ccc2ccccc2n1`, the melting point worked out at 144 °C. For `Fc1ccc(OC(=S)Nc2ccc(-c3ncn(-c4ccc(OC(F)(F)F)cc4)n3)cc2)cc1` the value was 164 to 169 °C. In the case of `COc1ccc(N2CCN(c3c(C)c(C)c4c(c3C)C(c3ccc(C)nc3)C(C)(C)O4)CC2)cc1` (stereo not given), the melting point was 131 to 133 °C.

In the case of `NC(=O)c1nc(-c2c(Cl)cc(C(F)(F)F)cc2Cl)[nH]c1C(N)=O`, the melting point lay in the range of 306 to 308 °C. For `CCOC(=O)C1=C(C)Nc2ccnc(OC(C)C)c2C1c1cccc2c1OCO2` (stereo not given) the value was 156 to 158 °C; for `O=C(O)/C=C/C=C(c1cccc(Cl)c1)c1cccc(Cl)c1`, 142 to 145 °C; for `CC(C)Cn1cnc2c(NN)nc3ccccc3c21`, 202 to 205 °C. For `Clc1ncnc2c1CCOc1ccccc1-2` the value was 114 to 115 °C; for `CC(C)(OCc1cc2cc(C(F)(F)F)ccc2n1S(=O)(=O)c1ccc2c(c1)CCO2)C(=O)O`, 92 to 94 °C; for `CC1(C)CN(C2CC3(C)C(CCC4C5CCC(C(=O)CSC#N)C5(C)CC(=O)C43)CC2O)CCO1` (stereo not given), 197 to 198 °C.

(Values after a melting point compilation (Tetko et al.; mined from patent text by program, amines drawn as free bases though some values may be those of a salt).)
